{"source": "paper PMC8352664", "about": "(The Journal of Biological Chemistry, 2021)", "system": "CD8^+ T cells in PBMCs from convalescent COVID-19 patients", "type": "cell-based, human", "data": [{"sequence": "YLQPSTFLL [S^269–277R273S]", "values": [{"measurement": "HLA-A2^S269–277+CD8+ T cell cross-reactivity between WT S^269–277 and variant peptide", "result": "no HLA-A2^S269–277+CD8^+ T cell cross-reactivity"}]}]}
